Patent US9011853B2, “B7-H4 fusion proteins and methods of use thereof” (Amplimmune, Inc., priority 2009, dated 2015)

What was measured:
DBA/1J mice = experiment: Collagen-induced arthritis (CIA) prophylactic model, arthritis score; format: in vivo, mouse; conditions: 0.5 mg (20 mg/kg) IP from day of CII immunization, 2 times each week up to 6 weeks; days 33 and beyond; vs vehicle (FIG. 3)
From the text: CIA is a well-characterized mouse model for human RA, in which injection of collagen II (CII) into DBA/1J mice induces swelling and progressive inflammation in joints resulting in arthritis. […] B7-H4-Ig treatment continued 2 times each week, up to 6 weeks. On day 21, mice were rechallenged with CII emulsified in IFA. FIG. 2 outlines a brief experimental design. Day 40 was the last B7-H4-Ig treatment.

[1] = test system: TNFα, IL6, and chemokine (MCP-1); experiment: Plasma proinflammatory molecules in CIA mice, BD Cytometric Bead Array; format: in vivo, mouse
From the text: Plasma was collected on day 33 from mice treated as described in Example 3 and analyzed for proinflammatory molecules, e.g. TNFα, IL6, and chemokine (MCP-1) using the BD™ Cytometric Bead Array (CBA) Flex Sets.

[2] = test system: CD4^+CD62L^+ naïve T cells; experiment: In vitro Th1 polarization: proliferation and cytokine production; format: cell-based, mouse
Protocol: Mouse splenocytes were first removed isolated from DO11.10 mice, which express an MHC class II restricted T cell receptor specific for OVA323-339. Mouse CD4^+ T cells were purified using a Miltenyi CD4^+ T cell negative isolation kit (Cat#130-090-860). […] CD4^+CD62L^+ naïve T cells with or without CD25^+ T cells were cultured in serum free HL-1 media in the presence of rIL-2 (1 ng/mL), rIL-12 (4 ng/mL) and anti-IL-4 (1 μg/mL). Activity of murine B7-H4-Ig was tested in a number of formats (soluble and insoluble presentation of B7-H4-Ig). Murine B7-H4-Ig was also assessed for activity on T cells activated non-specifically or with antigen-specific stimulation. To provide murine B7-H4-Ig in an immobilized format, 96-well flat bottom plates were first coated with murine B7-H4-Ig, 100 μl per well at 1 μg/mL, and incubated at 37° C. for 2 hours. […] For non-specific antigen activation, Mouse CD3/CD28 T Cell Expander beads (Dynabeads®; Invitrogen, Cat#11452D) were added into each well, at a 1:1 cell to bead ratio. For OVA specific activation, splenocytes were first isolated from Balb/C mice as antigen presenting cells (APC) followed by irradiation at 3000 rads for 45 minutes and then added into each well, at a 1:1, APC to responder cell, ratio. OVA323-339 peptide was added into the culture at 20 μg/mL. [^3H]-Thymidine (1 μCi/well) was added into each well 24 hr post co-incubation. Proliferation was determined by uptake of [^3H]-thymidine detected at 48 hr post [^3H]-thymidine addition using a Topcount Microplate Scintillation Counter (Packard Instruments, Meridan, Conn.). Results are expressed as the mean of triplicate cultures±SEM. Supernatants were collected from plates without [^3H]-Thymidine at 72 hr for cytokine analysis. Cytokine measurements were performed using the Mouse Cytokine 10-Plex system (Millipore) and Luminex Liquidchip analyzer (Qiagen, Valencia, Calif.) or ELISA. The human and mouse B7-H4 proteins are 95% homologous. Human B7-H4-Ig was tested for cross-reactivity with murine T cells. Naïve CD4^+ T cells were isolated as described above. Upon purification, murine naïve CD4^+ T cells were polarized in the presence of IL-2, IL-12 and anti-IL4 for Th1 cell-promoting conditions, or TGF-β, IL-6, IL-23, anti-IL4, anti-IFNγ and anti-IL-2 for Th17 cell-promoting conditions, as described in Example 5 for murine B7-H4-Ig in vitro bioactivity. Human B7-H4-Ig was directly added into the culture at 0, 0.1, 1 or 10 μg/mL. Human Control IgG1 (Synagis®) was added into the culture to bring the final protein concentration to 10 μg/mL. […] After depletion of CD4^+CD25^+ T cells, CD25^+/P3^+ cells were decreased from approximately 5% to 1%.

[3] = test system: naïve CD4^+CD62L^+ T cells (responder) with nTreg cells; experiment: In vitro nTreg suppression assay; format: cell-based, mouse; set-up: CD4+ T cell activation and proliferation: dose or concentration left out as unconfirmed
From the text: Spleens and lymph nodes were harvested from 10 FoxP3-GFP mice on a B6 background. […] Naïve CD4^+ T cells were purified from the rest of the cells as described above. A total of 6.2×10^8 naïve CD4^+ T cells were collected. 5×10^7 cells were set aside to be effector T cells in the experiment. The remainder of the cells (5.7×10^8) were stained with anti-CD4 PE-Cy7, and the PE-Cy7^+/GFP^+ cells were sorted via MoFlo. A total of 4×10^6 nTreg (CD4^+/FoxP3^+) cells were collected from the MoFlo at 99% purity. […] The culture wells also received various ratios of nTreg cells: B7-H4-Ig. nTreg cells (CD4^+/CD62L^+/FoxP3-GFP^+) were isolated from B6/FoxP3-GFP mice by MoFLo sorting. Naïve GFP^− T cells CD4^+/CD62L^+/FoxP3-GFP^−) were used as responder cells. Increasing numbers of the nTreg cells were added to constant numbers of naïve CD4^+CD62L^+ T cells, irradiated splenocytic APCs, and anti-CD3 (FIG. 31). […]

| Substance | overall arthritis scores (DBA/1J mice) | plasma TNFα production ([1]; plasma day 33, vs vehicle control (FIG. 17A)) | plasma IL6 production ([1]; plasma day 33, vs vehicle control (FIG. 17B)) | plasma MCP-1 production ([1]; plasma day 33, vs vehicle control (FIG. 17C)) | decrease in IFN-γ production ([2]; Th1 conditions, APC/OVA, CD25+ T cells depleted (open triangles), various doses (FIG. 29A)) | inhibition of IFN-γ production ([2]; Th1 conditions, APC/OVA, in the presence of CD4+CD25+ Treg cells (solid triangle) (FIG. 29A)) | IL-10 production ([2]; Th1 conditions, APC/OVA, solid triangles (FIG. 29B)) | anti-CD3 induced T cell activation ([3]; 1:0.12 and 1:0.25 ratios of T cell responder:nTreg, 5 or 10 μg/mL (FIG. 32)) | CD4+ T cell activation and proliferation ([3]; absence of nTreg cells (ratio 1:0), 0, 1, 5, or 10, anti-CD3 (FIG. 32)) | IFN-γ production in Th1 cells ([2]; 0, 0.1, 1 or 10 μg/mL in solution, anti-CD3/CD28 beads (FIG. 27)) | murine Th1 proliferation ([2]; 0, 0.1, 1 or 10 μg/mL in solution, anti-CD3/CD28 beads, dose dependent (FIG. 26)) |
| --- | --- | --- | --- | --- | --- | --- | --- | --- | --- | --- | --- |
| B7-H4-Ig: B7-H4 extracellular domain fused to Ig Fc; bare label is the human protein in Example 3, murine protein in Examples 1, 2, 5, 7-11 | significantly lower than the scores for vehicle-injected CIA mice | significantly reduced | significantly reduced | significantly reduced | dose dependent | more profound | increased IL-10 production in a dose dependent manner | completely blocked anti-CD3 induced T cell activation | suppressed CD4^+ T cell activation and proliferation in a dose dependent manner |  |  |
| Human B7-H4-Ig: human B7-H4 extracellular domain fused to hinge, CH2 and CH3 regions of human immunoglobulin Cγ1 chain; representative SEQ ID NOs:114-137 |  |  |  |  |  |  |  |  |  | reduced IFN-γ production | blocked murine Th1/Th17 proliferation |
